# Assay results: US20110014164A1, “EFFICIENT INDUCTION OF PLURIPOTENT STEM CELLS USING SMALL MOLECULE COMPOUNDS” (PRESIDENT AND FELLOWS OF HARVARD COLLEGE, priority 2008, published 2011)
# Like-named read-outs stand apart in the source and are kept apart here.
# Assays:
# [1] = tested on: MEFs infected with the four factors (Oct4, Sox2, Klf4 and c-Myc); type: cell-based, mouse
# Description: FIG. 1(a) MEFs infected with the four factors (Oct4, Sox2, Klf4 and c-Myc) were treated with various chemicals for a week, the percentage of Oct4-GFP positive cells induced was measured through FACS analysis, and compared to infected MEFs without treatment or treated with DMSO (the solvent for Dexamethasone, SAHA and TSA). The chemicals used were: 5′-azaC (2 μM), dexamethasone (dex, 1 μM), 5′-azaC (2 μM) together with dexamethasone (1 μM), VPA (2 mM), SAHA (5 μM) and TSA (20 nM). n=4 for each treatment. For all figures in this study, standard deviations are indicated by error bars, and P values by two-tailed student t-test less than 0.05, 0.01 and 0.001 are indicated by one, two and three asterisks respectively.
# To quantitate reprogramming efficiency, we established an assay based on Fluorescence-Activated Cell Sorting (FACS) analysis using an Oct4-GFP transgenic reporter, where the expression of the green fluorescent protein (GFP) is controlled by the promoter and enhancers of Oct4, a pluripotent marker gene^14.
# MEFs were derived from e13.5 embryos hemizygous for the Oct4-GFP transgenic allele. Embryos were sexed by inspecting gonads for the pattern of Oct4-GFP expression. Gonads and internal organs were removed before processing the embryos for MEF isolation. To generate iPS cells that can be identified in mouse chimeras after blastocyst injection, we derived MEFs from e13.5 embryos that are hemizygous for Oct4-GFP and heterozygous for the Rosa26-lacZ reporter allele. MEFs were grown in DMEM supplemented with 10% FBS, L-glutamine, penicillin/streptoMycin, nonessential amino acids, and sodium pyruvate. MEFs in early passages (up to passage 5) were used for generation of iPS cells.
# Moloney-based retroviral vector (pMXs) containing the murine complementary DNAs of Oct4, Sox2, c-Myc, and Klf4 were obtained from Addgene^1. These plasmids were co-transfected into 293T cells with packaging vectors (pUMVC and pCMV-VSVG), and viral supernatants were collected 48 hours post-transfection to infect MEFs. Two to three rounds of infection were performed during a 48 hour period. The first day after viral supernatants were removed was defined as 0 day post-infection. Infected MEFs were subsequently cultured in mouse ES cell media (Knockout DMEM supplemented with 15% Hyclone FBS, L-glutamine, penicillin/streptoMycin, nonessential amino acids, β-mercaptoethanol, and with 1000 U/ml LIF), and treated with small molecules or growth factors for a week starting from 1 or 2 days post-infection. […] All conditions were tested in quadruplicates.
# [2] = tested on: MEFs infected with the four factors (Oct4, Sox2, Klf4 and c-Myc); assay: cells; type: cell-based, mouse; settings: 4-factor infected MEFs
molecule,measurement,setting,value
N#CC(=C(/N)Sc1ccccc1N)/C(C#N)=C(\N)Sc1ccccc1N [U0126],effect on reprogramming efficiency,[1],no significant effects
"O=C(CCCCCCC(=O)Nc1ccccc1)NO [SAHA, suberoylanilide hydroxamic acid]",improvement over the control DMSO treatment,"[1]; 5 μM, 4-factor infected MEFs",10 fold
same,percentage of GFP positive cells,"[1]; 5 μM, 4-factor infected MEFs",approximately 0.198% (±0.102%)
COc1cccc(-c2cc(=O)c3ccccc3o2)c1N [PD98059],effect on reprogramming efficiency,[2]; 40 μM,no significant effects
CC(=O)O/N=C1/C(=C2/C(=O)Nc3cc(Br)ccc32)Nc2ccccc21 [BIO-Acetoxime],effect on reprogramming efficiency,"[1]; 2 μM, 4-factor infected MEFs",no significant effect
C[C@@H]1C[C@H]2[C@@H]3CCC4=CC(=O)C=C[C@]4(C)[C@@]3(F)[C@@H](O)C[C@]2(C)[C@@]1(O)C(=O)CO [dexamethasone],improvement of the effect of 5′-azaC when used in combination,[1],2.6 fold
same,effect on reprogramming efficiency,"[1]; 1 μM alone, 4-factor infected MEFs",no significant effect
"CC(/C=C/C(=O)NO)=C\[C@@H](C)C(=O)c1ccc(N(C)C)cc1 [TSA, trichostatin A]",percentage of GFP positive cells,"[1]; 20 nM, 4-factor infected MEFs",approximately 1.535% (±0.618%)
Wnt3a,effect on reprogramming efficiency,[2]; 100 ng/ml,no significant effect
"BMP4: recombinant human Bmp4 from Roche (protein, UniProt P12644 293-408, looked up) Bone morphogenetic protein 4: SPKHHSQRARKKNKNCRRHSLYVDFSDVGWNDWIVAPPGYQAFYCHGDCPFPLADHLNSTNHAIVQTLVNSVNSSIPKACCVPTELSAISMLYLDEYDKVVLKNYQEMVVEGCGCR",effect on reprogramming efficiency,[2]; 100 ng/ml,had no effect
